Values of other authors in patent publication US9649324B2, “Use of tylvalosin as antiviral agent” (ECO ANIMAL HEALTH LIMITED, priority 2006, dated 2017).

Conditions: orally administered, in vivo (Okamoto et al., 1981); cited from earlier work

Question: Which blood levels does the source give for `CCC1OC(=O)CC(OC(C)=O)C(C)C(OC2OC(C)C(OC3CC(C)(O)C(OC(=O)CC(C)C)C(C)O3)C(N(C)C)C2O)C(CC=O)CC(C)C(=O)C=CC(C)=CC1COC1OC(C)C(O)C(OC)C1OC` (stereo not shown) [tylvalosin, 3-O acetyl-4″-O-isovaleryltylosin] here?
Answer: higher blood levels than tylosin
